Where a name gives a salt, the structure may show the parent alone.
Experiments:
Type in all cases: biochemical
[1] = target: T1, human CGT (ceramide galactosyltransferase), CHO/CGT lysate (Homo sapiens, UniProt Q16880); experiment: CGT enzyme assay, RapidFire/MS/MS readout (Table 1 ranges with one asterisk *); settings: RapidFire method (range with one asterisk *)
T1 construct: Full-length human CGT cDNA was cloned into the BamH1/Xho1 site of pcDNA3.1 (+); expressed in transfected cells; host or cells: Chinese hamster ovary (CHO) cells; lysate prepared with M-PER
T1 sequence (Q16880 21-541): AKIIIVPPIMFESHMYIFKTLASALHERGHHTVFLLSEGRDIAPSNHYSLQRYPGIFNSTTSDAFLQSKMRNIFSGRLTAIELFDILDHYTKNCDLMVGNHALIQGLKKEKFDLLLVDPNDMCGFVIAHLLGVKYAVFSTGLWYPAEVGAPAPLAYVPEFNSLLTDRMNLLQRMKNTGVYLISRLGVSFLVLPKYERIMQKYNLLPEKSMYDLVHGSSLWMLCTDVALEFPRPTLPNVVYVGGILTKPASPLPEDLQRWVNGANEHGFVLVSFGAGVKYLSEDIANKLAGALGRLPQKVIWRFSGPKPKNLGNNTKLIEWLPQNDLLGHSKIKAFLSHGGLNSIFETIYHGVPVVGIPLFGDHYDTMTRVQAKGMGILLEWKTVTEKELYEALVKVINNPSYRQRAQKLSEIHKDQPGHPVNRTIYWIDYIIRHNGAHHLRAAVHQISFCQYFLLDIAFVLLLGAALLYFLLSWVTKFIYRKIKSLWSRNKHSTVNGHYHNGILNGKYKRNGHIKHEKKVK
Method in brief: (§1)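 Lysate (4 μg) of CHO cells transfected with full-length human CGT incubated 1 h at 37 °C with compound (0.001–50 μM) in pH 7.2 HEPES buffer with 10 μM C6-NBD-dihydro-ceramide, 17.5 μM UDP-galactose, Mg2+/Mn2+, CHAPS, BSA, 0.5% DMSO; ** set also contained 0.01% Tween 80. Product quantified by RapidFire/MS/MS, normalized to internal standard; IC50 from sigmoidal variable-slope fits.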

[2] = target: T1, human CGT (ceramide galactosyltransferase), CHO/CGT lysate; experiment: CGT enzyme assay, LC-MS/MS readout (Table 1 ranges without asterisk); settings: LC-MS/MS method (range without asterisk)
Method in brief: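 Lysate of CHO cells transfected with full-length human CGT incubated 1 h at 37 °C with compound (0.001–50 μM) in HEPES pH 7.2 with 17.5 μM UDP-galactose and C12:0 (2R-OH) ceramide substrate, 0.5% DMSO, no Tween 80. Galactosylceramide product quantified by LC-MS/MS against C12 ceramide internal standard; IC50 calculated.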

[3] = target: T1, human CGT (ceramide galactosyltransferase), CHO/CGT lysate; experiment: CGT enzyme assay, RapidFire/MS/MS readout with 0.01% Tween added (Table 1 ranges with two asterisks **); settings: CGT enzyme assay, RapidFire/MS/MS method with 0.01% Tween added (range with two asterisks **)
Method in brief: as §1

Row | SMILES | IC50 [1] | IC50 [2] | IC50 [3]
1 | CC(C)Oc1ccc2cc(S(=O)(=O)N[C@H](C(=O)N3C4CCC3CC(N)C4)C(F)(F)c3ccc(Br)cc3)ccc2c1 (stereo partly drawn) [Compound 1-1, N-((2R)-3-(3-amino-8-azabicyclo[3.2.1]octan-8-yl)-1-(4-bromophenyl)-1,1-difluoro-3-oxopropan-2-yl)-6-isopropoxynaphthalene-2-sulfonamide] | 1 to 10 µM | 1 to 10 µM | 
2 | NC1CC2CCC(C1)N2C(=O)[C@@H](NS(=O)(=O)c1ccc2cc(OC3CCCC3)ccc2c1)C(F)(F)c1ccc(Br)cc1 (stereo partly drawn) [Compound 5-1, N-((2R)-3-(3-amino-8-azabicyclo[3.2.1]octan-8-yl)-1-(4-bromophenyl)-1,1-difluoro-3-oxopropan-2-yl)-6-(cyclopentyloxy)naphthalene-2-sulfonamide] | < 1 µM | < 1 µM | < 1 µM
3 | CC(C)Oc1ccc2cc(S(=O)(=O)N[C@H](C(=O)N3C4CCC3CC(N)C4)C(F)(F)c3ccc(Cl)cc3)ccc2c1 (stereo partly drawn) [Compound 8-1, N-((2R)-3-(3-amino-8-azabicyclo[3.2.1]octan-8-yl)-1-(4-chlorophenyl)-1,1-difluoro-3-oxopropan-2-yl)-6-isopropoxynaphthalene-2-sulfonamide trifluoroacetate] | 1 to 10 µM | 1 to 10 µM | 
4 | CC(C)Oc1ccc2cc([C@@H](O)C(=O)N[C@@H](C(=O)N3C4CCC3CC(N)C4)C(F)(F)c3ccc(Br)cc3)ccc2c1 (stereo partly drawn) [Compound 19-4, (2R)—N-((2S)-3-(3-amino-8-azabicyclo[3.2.1]octan-8-yl)-1-(4-bromophenyl)-1,1-difluoro-3-oxopropan-2-yl)-2-hydroxy-2-(6-isopropoxynaphthalen-2-yl)acetamide trifluoroacetate] | 30 to 100 µM | 30 to 100 µM | 
5 | NC1CC2CCC(C1)N2C(=O)[C@@H](NS(=O)(=O)c1ccc(Oc2ccc(F)cc2)cc1)C(F)(F)c1ccc(Br)cc1 (stereo partly drawn) [Compound 25-1, N-((2R)-3-(3-amino-8-azabicyclo[3.2.1]octan-8-yl)-1-(4-bromophenyl)-1,1-difluoro-3-oxopropan-2-yl)-4-(4-fluorophenoxy)benzenesulfonamide trifluoroacetate] |  | 1 to 10 µM | 
6 | NC1CC2CCC(C1)N2C(=O)[C@H](NS(=O)(=O)c1ccc(Oc2ccc(F)cc2)cc1)C(F)(F)c1ccc(Br)cc1 (stereo partly drawn) [Compound 25-2, N-((2S)-3-(3-amino-8-azabicyclo[3.2.1]octan-8-yl)-1-(4-bromophenyl)-1,1-difluoro-3-oxopropan-2-yl)-4-(4-fluorophenoxy) benzenesulfonamide trifluoroacetate] |  | 30 to 100 µM | 
7 | NC1CC2CCC(C1)N2C(=O)[C@@H](NS(=O)(=O)c1ccc(OCCC2CCCCC2)cc1)C(F)(F)c1ccc(Br)cc1 (stereo partly drawn) [Compound 26-1, N-((2R)-3-(3-amino-8-azabicyclo[3.2.1]octan-8-yl)-1-(4-bromophenyl)-1,1-difluoro-3-oxopropan-2-yl)-4-(2-cyclohexylethoxy)benzenesulfonamide trifluoroacetate] |  | 1 to 10 µM | 
8 | NC1CC2CCC(C1)N2C(=O)[C@H](NS(=O)(=O)c1ccc(OCCC2CCCCC2)cc1)C(F)(F)c1ccc(Br)cc1 (stereo partly drawn) [Compound 26-2, N-((2S)-3-(3-amino-8-azabicyclo[3.2.1]octan-8-yl)-1-(4-bromophenyl)-1,1-difluoro-3-oxopropan-2-yl)-4-(2-cyclohexylethoxy)benzenesulfonamide trifluoroacetate] |  | 30 to 100 µM | 
9 | CC(C)Oc1ccc2cc(S(=O)(=O)N[C@H](C(=O)N3CCC(N)CC3)C(F)(F)c3ccc(Br)cc3)ccc2c1 [Compound 27-1, (R)—N-(3-(4-aminopiperidin-1-yl)-1-(4-bromophenyl)-1,1-difluoro-3-oxopropan-2-yl)-6-isopropoxynaphthalene-2-sulfonamide trifluoroacetate] |  | 1 to 10 µM | 
10 | CC(C)Oc1ccc2cc(S(=O)(=O)N[C@@H](C(=O)N3CCC(N)CC3)C(F)(F)c3ccc(Br)cc3)ccc2c1 [Compound 27-2, (S)—N-(3-(4-aminopiperidin-1-yl)-1-(4-bromophenyl)-1,1-difluoro-3-oxopropan-2-yl)-6-isopropoxynaphthalene-2-sulfonamide trifluoroacetate] |  | 10 to 30 µM | 
11 | CC(C)Oc1ccc2cc(S(=O)(=O)N[C@H](C(=O)N3CCC(N)CC3)C(F)(F)c3ccc(Br)cc3)ccc2c1Br [Compound 119-1, (R)—N-(3-(4-aminopiperidin-1-yl)-1-(4-bromophenyl)-1,1-difluoro-3-oxopropan-2-yl)-5-bromo-6-isopropoxynaphthalene-2-sulfonamide] |  | 1 to 10 µM | 
12 | CC(C)Oc1ccc2cc(S(=O)(=O)N[C@@H](C(=O)N3CCC(N)CC3)C(F)(F)c3ccc(Br)cc3)ccc2c1Br [Compound 119-2, (S)—N-(3-(4-aminopiperidin-1-yl)-1-(4-bromophenyl)-1,1-difluoro-3-oxopropan-2-yl)-5-bromo-6-isopropoxynaphthalene-2-sulfonamide] |  | 10 to 30 µM | 
13 | NC1CC2CCC(C1)N2C(=O)C(NS(=O)(=O)c1ccc(-c2ccc(F)cc2)nc1)C(F)(F)c1ccc(Br)cc1 (stereo not drawn) [Compound 199, N-(3-(3-amino-8-azabicyclo[3.2.1]octan-8-yl)-1-(4-bromophenyl)-1,1-difluoro-3-oxopropan-2-yl)-6-(4-fluorophenyl)pyridine-3-sulfonamide] |  | 30 to 100 µM | 
